Results as given in patent US11767310B2, “Nicotinamide RIPK1 inhibitors” (AbbVie Inc., priority 2021, dated 2023).
Like-named read-outs stand apart in the source and are kept apart here.

Assays:
Assay in all cases: Kinase binding screen
Conditions in all cases: read-out: Percent Control at 100 nM Compound Concentration
[1] = target: ABL1(F317L)-nonphosphorylated (Homo sapiens (Human), UniProt P00519, F317L)
ACVR2A = ACVR2A (Homo sapiens (Human), UniProt P27037)
BMPR1A = BMPR1A (Homo sapiens (Human), UniProt P36894)
CAMK1B = CAMK1B (Homo sapiens (Human), UniProt Q6P2M8)
CDC2L2 = CDC2L2 (Homo sapiens (Human), UniProt Q9UQ88)
Chain of CDC2L2 (Q9UQ88 whole entry): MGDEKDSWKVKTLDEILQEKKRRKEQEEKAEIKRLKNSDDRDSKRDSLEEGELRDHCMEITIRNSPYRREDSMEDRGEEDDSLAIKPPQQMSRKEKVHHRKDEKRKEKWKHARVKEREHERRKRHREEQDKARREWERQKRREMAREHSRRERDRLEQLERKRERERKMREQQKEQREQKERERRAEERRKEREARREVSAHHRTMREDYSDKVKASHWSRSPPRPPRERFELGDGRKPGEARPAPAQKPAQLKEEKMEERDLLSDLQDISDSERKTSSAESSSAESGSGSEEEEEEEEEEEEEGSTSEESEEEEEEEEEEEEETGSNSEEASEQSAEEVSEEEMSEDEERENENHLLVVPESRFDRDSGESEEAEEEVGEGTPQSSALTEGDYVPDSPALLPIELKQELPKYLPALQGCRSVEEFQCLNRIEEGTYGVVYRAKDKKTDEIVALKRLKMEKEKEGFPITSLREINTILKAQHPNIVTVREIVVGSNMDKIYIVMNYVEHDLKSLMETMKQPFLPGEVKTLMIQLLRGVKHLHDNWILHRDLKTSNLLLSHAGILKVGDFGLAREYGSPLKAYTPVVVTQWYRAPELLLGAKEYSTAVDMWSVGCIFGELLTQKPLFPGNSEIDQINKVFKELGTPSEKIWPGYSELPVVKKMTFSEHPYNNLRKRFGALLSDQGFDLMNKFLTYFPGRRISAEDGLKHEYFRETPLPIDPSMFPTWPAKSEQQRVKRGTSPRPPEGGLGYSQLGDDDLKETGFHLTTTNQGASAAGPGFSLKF

CDK3 = CDK3 (Homo sapiens (Human), UniProt Q00526)
Chain of CDK3 (Q00526 whole entry): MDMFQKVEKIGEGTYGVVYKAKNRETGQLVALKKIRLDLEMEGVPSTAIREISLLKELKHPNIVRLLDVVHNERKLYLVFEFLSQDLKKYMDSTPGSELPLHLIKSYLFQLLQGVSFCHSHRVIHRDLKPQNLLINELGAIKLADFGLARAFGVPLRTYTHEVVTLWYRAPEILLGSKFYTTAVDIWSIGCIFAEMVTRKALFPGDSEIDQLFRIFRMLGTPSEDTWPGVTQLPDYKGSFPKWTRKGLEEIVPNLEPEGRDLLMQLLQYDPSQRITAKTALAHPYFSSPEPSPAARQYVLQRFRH

ERK2 = ERK2 (Homo sapiens (Human), UniProt P28482)
ERK8 = ERK8 (Homo sapiens (Human), UniProt Q8TD08)
FGFR4 = FGFR4 (Homo sapiens (Human), UniProt P22455)
FLT1 = FLT1 (Homo sapiens (Human), UniProt P17948)
Chain of FLT1 (P17948 27-1338): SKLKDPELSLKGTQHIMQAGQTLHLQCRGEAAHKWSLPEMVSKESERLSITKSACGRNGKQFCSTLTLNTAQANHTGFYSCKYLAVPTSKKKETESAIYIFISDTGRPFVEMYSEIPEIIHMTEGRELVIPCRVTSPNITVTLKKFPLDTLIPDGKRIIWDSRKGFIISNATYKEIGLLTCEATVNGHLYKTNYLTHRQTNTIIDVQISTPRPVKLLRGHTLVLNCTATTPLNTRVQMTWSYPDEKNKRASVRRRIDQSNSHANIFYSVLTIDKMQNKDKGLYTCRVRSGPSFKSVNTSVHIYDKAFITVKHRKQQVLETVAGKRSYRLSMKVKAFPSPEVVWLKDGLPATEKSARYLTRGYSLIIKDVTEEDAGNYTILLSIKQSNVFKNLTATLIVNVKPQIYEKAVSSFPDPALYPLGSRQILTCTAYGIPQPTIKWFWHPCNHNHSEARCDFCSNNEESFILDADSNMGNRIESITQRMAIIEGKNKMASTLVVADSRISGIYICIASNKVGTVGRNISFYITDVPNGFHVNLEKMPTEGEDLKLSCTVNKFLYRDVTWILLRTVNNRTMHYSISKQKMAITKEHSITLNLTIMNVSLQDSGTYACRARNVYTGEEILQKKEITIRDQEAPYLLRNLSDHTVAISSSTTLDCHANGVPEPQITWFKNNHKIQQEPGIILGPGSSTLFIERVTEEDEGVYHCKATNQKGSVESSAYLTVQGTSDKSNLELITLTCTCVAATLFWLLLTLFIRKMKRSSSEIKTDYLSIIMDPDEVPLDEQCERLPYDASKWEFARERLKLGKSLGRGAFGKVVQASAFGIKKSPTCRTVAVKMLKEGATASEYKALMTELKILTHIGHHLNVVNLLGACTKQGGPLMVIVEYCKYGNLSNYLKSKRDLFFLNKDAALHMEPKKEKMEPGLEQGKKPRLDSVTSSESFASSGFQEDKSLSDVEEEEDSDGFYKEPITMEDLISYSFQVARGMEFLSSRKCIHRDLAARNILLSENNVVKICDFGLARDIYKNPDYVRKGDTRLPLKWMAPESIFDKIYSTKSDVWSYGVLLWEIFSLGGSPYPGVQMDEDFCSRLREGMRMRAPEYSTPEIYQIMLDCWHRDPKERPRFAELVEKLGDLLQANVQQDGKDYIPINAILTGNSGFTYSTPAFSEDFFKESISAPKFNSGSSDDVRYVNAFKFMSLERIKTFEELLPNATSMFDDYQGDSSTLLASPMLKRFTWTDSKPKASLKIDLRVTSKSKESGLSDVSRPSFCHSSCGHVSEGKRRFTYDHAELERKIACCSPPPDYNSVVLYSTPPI

FLT3(D835H) = FLT3(D835H) (Homo sapiens (Human), UniProt P36888, D835H)
FLT4 = FLT4 (Homo sapiens (Human), UniProt P35916)
Chain of FLT4 (P35916 25-1363): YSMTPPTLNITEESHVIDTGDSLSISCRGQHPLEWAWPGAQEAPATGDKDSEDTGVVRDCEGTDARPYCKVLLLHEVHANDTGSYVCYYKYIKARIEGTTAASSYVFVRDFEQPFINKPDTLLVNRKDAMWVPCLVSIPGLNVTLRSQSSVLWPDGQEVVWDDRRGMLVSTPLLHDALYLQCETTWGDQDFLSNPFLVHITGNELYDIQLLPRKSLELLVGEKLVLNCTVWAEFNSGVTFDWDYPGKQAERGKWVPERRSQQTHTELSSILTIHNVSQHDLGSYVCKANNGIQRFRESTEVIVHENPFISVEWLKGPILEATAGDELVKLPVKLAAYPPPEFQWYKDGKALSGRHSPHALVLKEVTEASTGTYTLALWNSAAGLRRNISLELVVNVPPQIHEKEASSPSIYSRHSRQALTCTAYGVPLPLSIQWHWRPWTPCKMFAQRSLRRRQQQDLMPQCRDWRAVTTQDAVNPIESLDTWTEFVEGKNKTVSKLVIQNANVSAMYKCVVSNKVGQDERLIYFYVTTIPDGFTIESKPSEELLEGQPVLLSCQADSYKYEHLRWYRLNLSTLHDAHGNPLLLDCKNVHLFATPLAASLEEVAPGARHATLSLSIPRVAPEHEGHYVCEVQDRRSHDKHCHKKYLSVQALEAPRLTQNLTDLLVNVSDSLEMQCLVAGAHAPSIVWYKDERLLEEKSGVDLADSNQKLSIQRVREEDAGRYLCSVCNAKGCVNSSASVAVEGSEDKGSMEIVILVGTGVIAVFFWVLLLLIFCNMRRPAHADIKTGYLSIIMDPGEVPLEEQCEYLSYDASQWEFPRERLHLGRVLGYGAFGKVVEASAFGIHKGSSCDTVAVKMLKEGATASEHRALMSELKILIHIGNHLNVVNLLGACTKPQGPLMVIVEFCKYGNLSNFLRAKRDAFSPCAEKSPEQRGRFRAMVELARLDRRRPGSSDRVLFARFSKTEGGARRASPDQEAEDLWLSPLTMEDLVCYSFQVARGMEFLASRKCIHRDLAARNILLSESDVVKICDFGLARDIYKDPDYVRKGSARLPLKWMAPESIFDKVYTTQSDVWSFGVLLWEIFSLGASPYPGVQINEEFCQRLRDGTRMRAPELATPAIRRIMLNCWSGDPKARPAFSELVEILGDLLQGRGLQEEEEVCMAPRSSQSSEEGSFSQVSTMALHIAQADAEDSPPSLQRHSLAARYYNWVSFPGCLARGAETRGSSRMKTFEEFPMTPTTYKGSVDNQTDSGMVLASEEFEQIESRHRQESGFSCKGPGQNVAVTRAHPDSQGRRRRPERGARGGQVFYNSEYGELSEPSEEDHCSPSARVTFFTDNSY

GRK1 = GRK1 (Homo sapiens (Human), UniProt Q15835)
HASPIN = HASPIN (Homo sapiens (Human), UniProt Q8TF76)
IRAK4 = IRAK4 (Homo sapiens (Human), UniProt Q9NWZ3)
Chain of IRAK4 (Q9NWZ3 whole entry): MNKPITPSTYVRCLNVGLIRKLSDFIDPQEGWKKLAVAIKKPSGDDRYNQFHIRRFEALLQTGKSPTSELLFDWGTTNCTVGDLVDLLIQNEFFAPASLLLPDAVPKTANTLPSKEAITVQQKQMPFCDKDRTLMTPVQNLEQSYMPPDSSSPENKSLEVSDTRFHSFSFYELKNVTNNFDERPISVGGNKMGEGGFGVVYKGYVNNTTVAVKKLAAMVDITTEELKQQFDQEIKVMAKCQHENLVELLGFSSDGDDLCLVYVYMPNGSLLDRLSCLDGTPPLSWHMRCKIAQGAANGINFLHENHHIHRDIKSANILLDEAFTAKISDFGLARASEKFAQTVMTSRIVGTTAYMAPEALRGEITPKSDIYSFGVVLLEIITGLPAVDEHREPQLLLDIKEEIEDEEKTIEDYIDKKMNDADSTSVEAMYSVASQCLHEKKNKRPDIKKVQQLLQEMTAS

JNK1 = JNK1 (Homo sapiens (Human), UniProt P45983)
Chain of JNK1 (P45983 whole entry): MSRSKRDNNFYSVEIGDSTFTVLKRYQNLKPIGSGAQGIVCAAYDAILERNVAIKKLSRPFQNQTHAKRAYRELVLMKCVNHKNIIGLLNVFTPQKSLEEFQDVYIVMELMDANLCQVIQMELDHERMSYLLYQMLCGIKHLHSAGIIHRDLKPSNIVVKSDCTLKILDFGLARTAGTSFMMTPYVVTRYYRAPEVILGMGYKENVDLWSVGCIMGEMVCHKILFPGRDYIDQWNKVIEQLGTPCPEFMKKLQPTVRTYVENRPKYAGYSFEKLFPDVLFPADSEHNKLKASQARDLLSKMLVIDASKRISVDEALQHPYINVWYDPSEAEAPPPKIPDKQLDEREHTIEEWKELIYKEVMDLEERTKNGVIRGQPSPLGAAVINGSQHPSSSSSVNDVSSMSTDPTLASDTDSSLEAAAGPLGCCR

KIT(D816H) = KIT(D816H) (Homo sapiens (Human), UniProt P10721, D816H)
KIT(D816V) = KIT(D816V) (Homo sapiens (Human), UniProt P10721, D816V)
LRRK2(G2019S) = LRRK2(G2019S) (Homo sapiens (Human), UniProt Q5S007, G2019S)
MINK = MINK (Homo sapiens (Human), UniProt Q8N4C8)
MST4 = MST4 (Homo sapiens (Human), UniProt Q9P289)
NIM1 = NIM1 (Homo sapiens (Human), UniProt Q8IY84)
PIP5K2C = PIP5K2C (Homo sapiens (Human), UniProt Q8TBX8)
Chain of PIP5K2C (Q8TBX8 whole entry): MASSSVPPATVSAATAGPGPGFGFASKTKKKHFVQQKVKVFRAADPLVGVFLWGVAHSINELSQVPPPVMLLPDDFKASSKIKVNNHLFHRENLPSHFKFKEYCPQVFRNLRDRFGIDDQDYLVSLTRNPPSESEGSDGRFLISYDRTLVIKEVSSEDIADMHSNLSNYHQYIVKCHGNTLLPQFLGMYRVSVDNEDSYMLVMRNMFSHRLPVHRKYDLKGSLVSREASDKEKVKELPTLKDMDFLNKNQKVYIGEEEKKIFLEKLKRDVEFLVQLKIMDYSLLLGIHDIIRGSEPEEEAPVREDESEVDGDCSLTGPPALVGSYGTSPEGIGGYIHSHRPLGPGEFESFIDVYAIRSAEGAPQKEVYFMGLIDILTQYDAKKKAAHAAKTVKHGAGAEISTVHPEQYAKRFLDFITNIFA

PKNB(M.tuberculosis) = PKNB(M.tuberculosis) (Mycobacterium tuberculosis (strain ATCC 25618 / H37Rv), UniProt P9WI81)
PRKG2 = PRKG2 (Homo sapiens (Human), UniProt Q13237)
RET = RET (Homo sapiens (Human), UniProt P07949)
SgK110 = SgK110 (Homo sapiens (Human), UniProt P0C264)
TXK = TXK (Homo sapiens (Human), UniProt P42681)
WEE1 = WEE1 (Homo sapiens (Human), UniProt P30291)

Work on CN(C[C@H](Cc1ccccc1)OP(=O)(O)O)C(=O)c1cncc(C#Cc2cnn(C(F)F)c2)c1 [Example 19, (S)-1-(5-((1-(difluoromethyl)-1H-pyrazol-4-yl)ethynyl)-N-methylnicotinamido)-3-phenylpropan-2-yl dihydrogen phosphate] yielded a remaining activity at 0.1 µM [1] of 100%, a remaining activity at 0.1 µM (ACVR2A) of 100% and a remaining activity at 0.1 µM (BMPR1A) of 94%. For the same compound, the remaining activity at 0.1 µM (CAMK1B) was 83%, the remaining activity at 0.1 µM (CDC2L2) was 100% and the remaining activity at 0.1 µM (CDK3) was 100%. The remaining activity at 0.1 µM (ERK2) was 100%, the remaining activity at 0.1 µM (ERK8) was 100% and the remaining activity at 0.1 µM (FGFR4) was 100%. For the same compound, the remaining activity at 0.1 µM (FLT1) was 100%, the remaining activity at 0.1 µM (FLT3(D835H)) was 100% and the remaining activity at 0.1 µM (FLT4) was 100%. The remaining activity at 0.1 µM (GRK1) was 98%, the remaining activity at 0.1 µM (HASPIN) was 83% and the remaining activity at 0.1 µM (IRAK4) was 83%. For the same compound, the remaining activity at 0.1 µM (JNK1) was 87%, the remaining activity at 0.1 µM (KIT(D816H)) was 98% and the remaining activity at 0.1 µM (KIT(D816V)) was 100%. The remaining activity at 0.1 µM (LRRK2(G2019S)) was 93%, the remaining activity at 0.1 µM (MINK) was 100% and the remaining activity at 0.1 µM (MST4) was 84%. The remaining activity at 0.1 µM (NIM1) was 89%, the remaining activity at 0.1 µM (PIP5K2C) was 74% and the remaining activity at 0.1 µM (PKNB(M.tuberculosis)) was 100%. For the same compound, the remaining activity at 0.1 µM (PRKG2) was 97%, the remaining activity at 0.1 µM (RET) was 100% and the remaining activity at 0.1 µM (SgK110) was 77%. For the same compound, the remaining activity at 0.1 µM (TXK) was 100% and the remaining activity at 0.1 µM (WEE1) was 100%.
For CN(C[C@@H](O)Cc1ccccc1)C(=O)c1cncc(C#Cc2cnn(C(F)F)c2)c1 [Example 2, (S)-5-((1-(difluoromethyl)-1H-pyrazol-4-yl)ethynyl)-N-(2-hydroxy-3-phenylpropyl)-N-methylnicotinamide], the remaining activity at 0.1 µM ([1]; ABL1(F317L)-nonphosphorylated) was 100%, the remaining activity at 0.1 µM (ACVR2A; ACVR2A) was 94% and the remaining activity at 0.1 µM (BMPR1A; BMPR1A) was 86%. The remaining activity at 0.1 µM (CAMK1B; CAMK1B) was 82%, the remaining activity at 0.1 µM (CDC2L2; CDC2L2) was 100% and the remaining activity at 0.1 µM (CDK3; CDK3) was 100%. For the same compound, the remaining activity at 0.1 µM (ERK2; ERK2) was 100%, the remaining activity at 0.1 µM (ERK8; ERK8) was 100% and the remaining activity at 0.1 µM (FGFR4; FGFR4) was 100%. It also gave a remaining activity at 0.1 µM (FLT1; FLT1) of 100%, a remaining activity at 0.1 µM (FLT3(D835H); FLT3(D835H)) of 100% and a remaining activity at 0.1 µM (FLT4; FLT4) of 100%. For the same compound, the remaining activity at 0.1 µM (GRK1; GRK1) was 100%, the remaining activity at 0.1 µM (HASPIN; HASPIN) was 86% and the remaining activity at 0.1 µM (IRAK4; IRAK4) was 91%. The remaining activity at 0.1 µM (JNK1; JNK1) was 92%, the remaining activity at 0.1 µM (KIT(D816H); KIT(D816H)) was 100% and the remaining activity at 0.1 µM (KIT(D816V); KIT(D816V)) was 100%. For the same compound, the remaining activity at 0.1 µM (LRRK2(G2019S); LRRK2(G2019S)) was 100%, the remaining activity at 0.1 µM (MINK; MINK) was 100% and the remaining activity at 0.1 µM (MST4; MST4) was 97%. For the same compound, the remaining activity at 0.1 µM (NIM1; NIM1) was 89%, the remaining activity at 0.1 µM (PIP5K2C; PIP5K2C) was 63% and the remaining activity at 0.1 µM (PKNB(M.tuberculosis)) was 100%. The remaining activity at 0.1 µM (PRKG2; PRKG2) was 100%, the remaining activity at 0.1 µM (RET; RET) was 100% and the remaining activity at 0.1 µM (SgK110; SgK110) was 81%. The remaining activity at 0.1 µM (TXK; TXK) was 100% and the remaining activity at 0.1 µM (WEE1; WEE1) was 92%.
